From patent US10555919B2, “Melatonin in autoimmune disease” (The Brigham and Women's Hopsital, Inc., priority 2014, dated 2020)

What was measured:
[1] = system: experimental autoimmune encephalitis (EAE) model of MS; assay: EAE in mice immunized with MOG35-55, treated daily with melatonin or vehicle; format: in vivo, C57BL/6 wild-type mice; details: melatonin 5 mg/kg intraperitoneally daily
CD4+ T cells [2] = assay: Flow cytometry of T cell subsets from spleen, lymph nodes and CNS of EAE mice; format: in vivo, C57BL/6 wild-type mice; details: melatonin 5 mg/kg daily
Description: For intracellular cytokine staining, cells were stimulated for 4 h at 37° C. with phorbol 12-myristate 13-acetate (50 ng/ml; Sigma), ionomycin (1 μg/ml; Sigma) and monensin (GolgiStop; 1 μg/ml; BD Biosciences). After being stained for surface markers, cells were fixed and made permeable according to the manufacturer's instructions (BD Biosciences). All antibodies against cytokines were from Biolegend. All experiments were started at the same time (8-9 am). Data were collected with a LSR II or FACSAria (BD Biosciences), then were analyzed with FlowJo software (Treestar). CNS infiltrates were isolated as described (Mascanfroni et al., 2013). Mice were perfused with ice-cold PBS. The brain and spinal cord were removed and incubated in PBS containing collagenase type III (2 mg/ml; Worthington) and DNase (20 units/ml; Sigma-Aldrich). Tissues were then homogenized and loaded on a 30%-37%-70% Percoll gradient for enrichment of CNS infiltrates. Based on our epidemiological findings, we studied the effects of melatonin on CNS inflammation using the experimental autoimmune […] (EAE) model of MS. Naïve C57BL/6 wild-type mice were immunized with MOG35-55 and treated daily with melatonin (5 mg/kg, intraperitoneally) or vehicle. Melatonin administration ameliorated EAE clinical symptoms (FIG. 2a, Table 2 and FIG. 7a).

Splenocytes = assay: Recall response to MOG35-55 of splenocytes from melatonin-treated mice; format: in vivo
Description: Secreted cytokines were measured in tissue culture supernatants after 72-96 hs by enzyme-linked immunosorbent assay as previously described (Farez et al., 2009). […] The cells were pulsed with [3H]thymidine (1 μCi/well) for the final 24 h. The frequency of T cells producing IL-17 (eBioscience), IFN-γ (BioLegend) or IL-10 (BD Pharmingen) and Foxp3+ T cells (eBioscience) was assessed by flow cytometry. For CFSE-based proliferation assay, CD4+ T cells were labeled with 1 μM CFSE (carboxyfluorescein diacetate succinimidyl ester; Molecular Probes). Data were acquired on an […] (BD Biosciences) or MacsQuants (Miltenyi) and analyzed with FlowJo software (TreeStar). To further characterize the effects of melatonin on the encephalitogenic T-cell response, we analyzed the recall response to MOG35-55. […] Thus, melatonin arrests the encephalitogenic Th17 cell response.

CD4+ T cells [3] = assay: Co-incubation of sorted CD4+ T cells with treatment-switched dendritic cells; format: in vivo; details: CD4+ T cells from melatonin-treated mice co-incubated with splenic DCs from control mice
Description: To investigate if melatonin acts directly on T cells or whether it controls the T-cell response indirectly through its effects on antigen presenting cells, we co-incubated sorted CD4^+ T cells from melatonin-treated or control mice with treatment-switched dendritic cells (DCs).

[4] = system: FoxP3+ iTregs, Th1 or Th2 cells; assay: In vitro mouse differentiation of FoxP3+ iTregs, Th1 or Th2 cells; format: cell-based; details: melatonin 2 ng/ml, 3 days
Description: Naive CD4+ T cells (CD4+CD44loCD62LhiCD25−) were from the spleen and lymph node of C57BL/6 wild-type, MTNR1A−, NFIL3−, REV-ERBα, C/EBPα-deficient or RORα-deficient mice using magnetic beads (CD4+ T cell isolation kit, Miltenyi Biotec). All experiments were started between 7 and 9 am. Cells were activated with plate-bound anti-CD3 (2 μg/ml; 14-0031-86; eBioscience) and anti-CD28 (2 μg/ml; 16-0281-86; eBioscience). Mouse IL-27 (30 ng/ml; 34-8271; Biolegend) was added for the generation of Tr1 cells. IL-6 (30 ng/ml; 406-ML-025; R&D Systems), TGF-β1 (15 ng/ml; 130-095-067; […] C17.8; Biolegend) and anti-IFN-γ (5 μg/ml; XMG1.2; Biolegend) were added for the generation of Th17 cells. Recombinant mouse IL-23 (30 ng/ml; 1887-ML-010; R&D Systems) was added at day 2. For some experiments IL-6 and […] (10 ng/ml; 401-ML-025; R&D Systems) or TGF-β1 and IL-21 (100 ng/ml; 594-ML-010; R&D Systems) were used in instead for Th17 cell differentiation. IL-12 (30 ng/ml; 419-ML-010; […] C17.8; Biolegend) were used for the generation of Th1 cells. IL-4 (30 ng/ml; 404-ML-010; R&D Systems) and anti-IFN-γ (5 μg/ml; XMG1.2; Biolegend) was added for the generation of Th2 cells. TGF-β1 (15 ng/ml; 130-095-067; Miltenyi Biotec) was used for the generation of Foxp3+ Tregs.

Erk1/2 = assay: Signal transduction profiling using reverse protein arrays; format: cell-based, mouse; details: T cells; MTNR1A-dependent
Description: Cells activated under polarizing conditions were treated with vehicle (DMSO 0.001%), melatonin (2-10 ng/mL), agomelatine (2-10 ng/mL) and CGP-52608 (2-10 ng/mL) during 72-96 hs and lysed. Lysates were transferred to 384-well polypropylene plates and were spotted onto Super Epoxi slides (Telechem) with a robotic microarrayer (Genetix) fitted with solid spotting pins.

CD4+ T cells [5] = assay: Th17 differentiation in vivo in RAG-1 deficient mice reconstituted with CD4+ T cells and immunized with MOG35-55 in CFA; details: melatonin 5 mg/kg
Description: Sorted splenic CD4+ T cells from C57BL/6, MTNR1A-, REV-ERBα and NFIL3-deficient mice were transferred i.p. (10×10^6 cells per mouse) into RAG-1 deficient mice. Ten days after transfer, mice were checked for reconstitution of CD4+ T cells and immunized with MOG35-55 in CFA. Twenty days after immunization, T cells were isolated and stained for cytokines.

## COc1ccc2[nH]cc(CCNC(C)=O)c2c1 [Melatonin, N-Acetyl-5-methoxytryptamine]
[1]
  EAE clinical symptoms: ameliorated
  Mean onset day (mean ± sd): 11.8 ± 3.0 days
  Mortality: 0/24
[1]; **P < 0.05
  Mean maximum score (mean ± sd): 2.06 ± 0.8**
[1]; *P = 0.05
  Incidence (%): 65%
  Incidence (animals): 17/24
CD4+ T cells [2]
  IL-10 secreting CD4+ T cells: increase
  number and frequency of Th17 cells in spleen, lymph nodes and CNS: decreased number and frequency
  number or frequency of other T cell subsets, B cells, γδ T cells or innate lymphoid cells (ILCs): no significant changes
Splenocytes
  proliferative response to MOG35-55: diminished
Splenocytes; recall to MOG35-55
  IFN-γ production: no significant effects
  IL-10 production: increased
  IL-17 production: reduced
CD4+ T cells [3]
  IL-10 production: increased
  proliferation and IL-17 secretion: decreased
[4]
  differentiation of FoxP3+ iTregs, Th1 or Th2 cells: no effects
Erk1/2
  activation of Erk1/2: increase
CD4+ T cells [5]; mice reconstituted with MTNR1A-, REV-ERBα or NFIL3-deficient T cells
  Th17 cell differentiation in vivo: increased
CD4+ T cells [5]; mice reconstituted with wild type CD4+ T cells
  Th17 cell differentiation in vivo: suppression
